Results taken from patent US10730826B2, “Ketone inhibitors of lysine gingipain” (CORTEXYME, INC., priority 2016, dated 2020).

Assays:
cathepsin V = cathepsin V (Homo sapiens (Human), UniProt O60911); test: Cathepsin V inhibition assay; type: biochemical; details: Table 4; read-out: IC50 (nM) CatV
Procedure: (§1) The capacities of compounds of the present invention to inhibit the activity of cathepsins B, H, K, L, and S were measured in similar assays. Boc-Leu-Arg-Arg-AMC (20 μM) in sodium acetate buffer (50 mM, pH 5.5) containing DTT (1 mM) and EDTA (2 mM) was used for the Cathepsin B assay. L-Arg-AMC (20 μM) in sodium acetate buffer (50 mM, pH 5.5) containing DTT (1 mM) and EDTA (2 mM) was used for the Cathepsin H assay. Z-Phe-Arg-AMC (10 μM) in HEPES buffer (50 mM, pH 7.4) containing DTT (2.5 mM) and EDTA (1 mM) was used for the Cathepsin K assay. Z-Phe-Arg-AMC (20 μM) in sodium acetate buffer (50 mM, pH 5.5) containing DTT (1 mM) and EDTA (2 mM) was used for the Cathepsin L assay. Z-Leu-Arg-AMC (10 μM) in sodium acetate buffer (25 mM, pH 4.5) containing DTT (2.5 mM) and NaCl (50 mM) was used for the Cathepsin S assay. The capacities of the compounds to inhibit the activity of cathepsins F, V, and Z were also measured.
(§2) Further assays to measure the inhibitory activity of compounds of the present invention against Kgp and cathepsins B, H, K, L, and S were conducted as described in Example 66. The capacities of the compounds to inhibit the activity of cathepsins F, V, and Z were also measured.

P. gingivalis W83 [1] = test: Mouse periodontitis model, GAD67 positive interneurons in the dentate gyrus; type: in vivo, BALB/C mice; details: 10 weeks, infected treated mice vs mock-infected
Procedure: (§3) At the beginning of the study, eight week old BALB/C female mice received antibiotic in drinking water (sulfamethoxazolum 0.87 mg/mL, trimethoprimum 0.17 mg/mL) for 10 days to reduce microbiome protection from experiment infection. Experimental periodontitis was induced by ligature placement followed by multiple exposures to P. gingivalis. During the ligature procedure mice were anesthetized with an intraperitoneal injection of ketamine (200 mg/kg) and xylazine (10 mg/kg), and eyes were lubricated with ointment (Puralube Vet; Pharmaderm, Melville, N.Y.). Next, a 5-0 silk ligature (Roboz Surgical Instrument Co.) was tied around the upper maxillary left and right second molar. Sutures were applied and tied gently to prevent damage to the periodontal tissue.
Mice (n=8-10/arm) were infected for 6 weeks every other day. For infection, […]. of bacteria solution were applied topically to the buccal surface of the maxillae. For preparation of the bacteria, P. gingivalis W83 (ATCC, Rockville, Md.) was streaked on Tryptic Soy Broth (TSB) agar plates (5% sheep blood, supplemented with 0.5 mg/mL L-cysteine, 5 μg/mL hemin, and 0.5 μg/mL vitamin K) and grown under anaerobic conditions at 37° C. for 5-7 days. […]
Quantification of GAD67 positive interneurons was performed with CellSens 1.5. […] The number of cells on every 40th section through the hippocampus was counted. […]

Cathepsin B = Cathepsin B (Homo sapiens (Human), UniProt P07858); test: Cathepsin B inhibition assay; type: biochemical; details: Table 4; read-out: IC50 (nM) CatB
Procedure: as §1, §2

Cathepsin L = Cathepsin L (Homo sapiens (Human), UniProt P07711); test: Cathepsin L inhibition assay; type: biochemical; details: Table 4; read-out: IC50 (nM) CatL
Chain of Cathepsin L (P07711 114-333, species assumed): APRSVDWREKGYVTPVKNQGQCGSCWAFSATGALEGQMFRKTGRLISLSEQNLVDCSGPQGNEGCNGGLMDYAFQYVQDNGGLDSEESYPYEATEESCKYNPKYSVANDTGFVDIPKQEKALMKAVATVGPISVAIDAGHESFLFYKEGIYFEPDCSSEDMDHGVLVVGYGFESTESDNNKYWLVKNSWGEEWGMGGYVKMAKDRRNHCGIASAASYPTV
Procedure: as §1, §2

cathepsin Z = cathepsin Z (Homo sapiens (Human), UniProt Q9UBR2); test: Cathepsin Z inhibition assay; type: biochemical; details: Table 4; read-out: IC50 (nM) CatZ
Chain of cathepsin Z (Q9UBR2 62-303): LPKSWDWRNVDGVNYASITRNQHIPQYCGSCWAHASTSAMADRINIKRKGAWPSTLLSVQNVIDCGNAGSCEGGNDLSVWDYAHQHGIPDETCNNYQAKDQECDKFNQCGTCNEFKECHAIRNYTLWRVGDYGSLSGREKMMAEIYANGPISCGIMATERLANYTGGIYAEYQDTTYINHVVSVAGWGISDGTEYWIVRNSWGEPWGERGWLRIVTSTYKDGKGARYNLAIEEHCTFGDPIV
Procedure: as §1, §2

Cathepsin H = Cathepsin H (Homo sapiens (Human), UniProt P09668); test: Cathepsin H inhibition assay; type: biochemical; details: Table 4; read-out: IC50 (nM) CatH
Chain of Cathepsin H (P09668 98-335, species assumed): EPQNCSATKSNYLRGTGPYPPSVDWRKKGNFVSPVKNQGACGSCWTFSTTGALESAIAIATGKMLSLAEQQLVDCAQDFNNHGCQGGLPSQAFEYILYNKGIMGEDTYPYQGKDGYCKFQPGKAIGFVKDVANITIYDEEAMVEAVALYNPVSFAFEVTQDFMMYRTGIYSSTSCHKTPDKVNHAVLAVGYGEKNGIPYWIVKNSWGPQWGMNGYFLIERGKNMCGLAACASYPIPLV
Procedure: as §1, §2

P. gingivalis W83 [2] = test: Mouse periodontitis model, alveolar bone loss; type: in vivo, BALB/C mice; details: week 5-10
Procedure: as §3
Mice (n=8-10/arm) were infected for 6 weeks every other day. For infection, […]. of bacteria solution were applied topically to the buccal surface of the maxillae. For preparation of the bacteria, P. gingivalis W83 (ATCC, Rockville, Md.) was streaked on Tryptic Soy Broth (TSB) agar plates (5% sheep blood, supplemented with 0.5 mg/mL L-cysteine, 5 μg/mL hemin, and 0.5 μg/mL vitamin K) and grown under anaerobic conditions at 37° C. for 5-7 days. Samples were then inoculated in TSB with hemin, vitamin K and L-cysteine (TSB-HKC) until mid-log phase (OD600=0.5-0.7). Bacteria were washed in PBS and prepared at final concentration of 1×10^10 cells/mL in PBS+2% methylcellulose (CMC).
Vehicle-treated animals received PBS only. At 5 weeks, a subgroup of animals (n=16) were euthanized to gather baseline measurements before the start of treatment. After 10 weeks, mice were euthanized and the brain, serum, and maxillary tissues were harvested and frozen in liquid nitrogen.
Bone loss in the maxillae was measured ex vivo blinded using OsiriX MD software (PixmeoSARL, Bernex, Switzerland). […] The distance between the cementoenamel junction (CEJ) and the alveolar bone crest (ABC) was measured from the CEJ to a reference line on the ABC which was placed perpendicular to the superficial root one each side of the second molar. […]

Cathepsin S = Cathepsin S (Homo sapiens (Human), UniProt P25774); test: Cathepsin S inhibition assay; type: biochemical; details: Table 4; read-out: IC50 (nM) CatS
Chain of Cathepsin S (P25774 115-331, species assumed): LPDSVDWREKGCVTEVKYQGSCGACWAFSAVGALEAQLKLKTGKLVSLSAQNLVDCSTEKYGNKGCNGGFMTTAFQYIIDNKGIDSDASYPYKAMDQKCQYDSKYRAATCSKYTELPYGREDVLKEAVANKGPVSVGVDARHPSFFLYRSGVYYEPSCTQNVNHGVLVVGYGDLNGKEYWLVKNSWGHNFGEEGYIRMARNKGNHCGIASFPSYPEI
Procedure: as §1, §2

P. gingivalis = test: Related studies: brain abeta42 and neuroinflammation; type: in vivo
cathepsin F = cathepsin F (Homo sapiens (Human), UniProt Q9UBX1); test: Cathepsin F inhibition assay; type: biochemical; details: Table 4; read-out: IC50 (nM) CatF
Chain of cathepsin F (Q9UBX1 271-484): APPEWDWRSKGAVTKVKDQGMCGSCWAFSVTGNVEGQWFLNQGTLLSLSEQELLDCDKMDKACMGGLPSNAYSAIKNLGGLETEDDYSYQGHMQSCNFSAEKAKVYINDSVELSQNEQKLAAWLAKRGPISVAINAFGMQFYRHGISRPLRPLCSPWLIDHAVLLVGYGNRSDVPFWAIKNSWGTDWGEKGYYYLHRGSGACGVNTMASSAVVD
Procedure: as §1, §2

[3] = Pharmacokinetics in male CD-1 mice dosed p.o.; type: in vivo; details: p.o. 10 mg/kg, compared to reference compound 73
Cathepsin K = Cathepsin K (Homo sapiens (Human), UniProt P43235); test: Cathepsin K inhibition assay; type: biochemical; details: Table 4; read-out: IC50 (nM) CatK
Chain of Cathepsin K (P43235 115-329, species assumed): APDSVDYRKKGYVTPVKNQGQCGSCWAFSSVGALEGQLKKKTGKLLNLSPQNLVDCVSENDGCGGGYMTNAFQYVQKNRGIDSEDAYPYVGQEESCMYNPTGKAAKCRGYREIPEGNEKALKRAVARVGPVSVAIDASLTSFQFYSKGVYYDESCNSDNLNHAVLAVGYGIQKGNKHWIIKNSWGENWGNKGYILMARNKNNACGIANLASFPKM
Procedure: as §1, §2

Chain of cathepsin V (O60911 114-334): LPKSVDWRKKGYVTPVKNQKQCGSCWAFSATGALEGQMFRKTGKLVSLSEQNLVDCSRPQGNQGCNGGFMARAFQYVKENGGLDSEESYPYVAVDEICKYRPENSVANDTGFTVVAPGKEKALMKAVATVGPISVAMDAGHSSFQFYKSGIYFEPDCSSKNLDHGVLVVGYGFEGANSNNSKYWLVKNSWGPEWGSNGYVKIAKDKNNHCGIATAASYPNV

NCCCC[C@H](NC(=O)C1CCCC1)C(=O)COc1c(F)ccc(F)c1F [Compound 1, (S)—N-(7-amino-2-oxo-1-(2,3,6-trifluorophenoxy)heptan-3-yl)cyclopentanecarboxamide]
IC50 (cathepsin V): > 10000 nM
GAD67 positive interneurons in the dentate gyrus (P. gingivalis W83 [1]): at the same level as the GAD67^+ cells in the mock-infected mice
IC50 (Cathepsin B): 380 nM
IC50 (Cathepsin L): 4680 nM
IC50 (cathepsin Z): > 10000 nM
IC50 (Cathepsin H): 560 nM
alveolar bone loss (P. gingivalis W83 [2]; 3 mg/kg oral b.i.d.): trended to improvement but did not result in significant improvement
alveolar bone loss (P. gingivalis W83 [2]; 10 mg/kg oral b.i.d.): improved
alveolar bone loss (P. gingivalis W83 [2]; 30 mg/kg oral b.i.d.): improved
IC50 (Cathepsin S): > 10000 nM
induction of brain abeta42 (P. gingivalis): reduce induction
neuroinflammation (P. gingivalis): reduce induction
IC50 (cathepsin F): 6100 nM
oral availability [3]: improved oral availability
plasma concentrations [3]: increased plasma concentrations
IC50 (Cathepsin K): 117 nM
